Experimental data from patent US11180504B2 (ORCHID PHARMA LTD., priority 2016, dated 2021).
Converted amounts (≈) assume the structure as drawn.

Key:
[1] = system: carbapenemase producing K. pneumoniae; test: MIC by broth micro-dilution (CLSI), carbapenemase producing K. pneumoniae; assay type: cell-based, Klebsiella pneumoniae; conditions: Klebsiella pneumoniae, ATCCBAA1705, KPC-2 K. pneumoniae ATCC BAA-1705; read-out: MIC
[2] = system: carbapenem sensitive Pseudomonas aeruginosa; test: MIC by broth micro-dilution (CLSI), carbapenem sensitive P. aeruginosa; assay type: cell-based; conditions: Pseudomonas aeruginosa, ATCC27853, Meropenem susceptible P. aeruginosa ATCC27853; read-out: MIC
[3] = system: methicillin-sensitive Staphylococcus aureus; test: MIC by broth micro-dilution (CLSI), methicillin-sensitive S. aureus; assay type: cell-based; conditions: Staphylococcus aureus, ATCC 29213 / MSSA, MSSA S. aureus ATCC29213; read-out: MIC
[4] = system: carbapenem sensitive Escherichia coli; test: MIC by broth micro-dilution (CLSI), carbapenem sensitive E. coli; assay type: cell-based; conditions: Escherichia coli, ATCC25922, ESBL −ve E. coli ATCC25922; read-out: MIC

MIC [1]	MIC [2]	MIC [3]	MIC [4]	Structure (SMILES)
2 µg/mL (≈ 3.8 µM)	8 µg/mL (≈ 15.2 µM)	32 µg/mL (≈ 60.8 µM)	2 µg/mL (≈ 3.8 µM)	CNCC(=O)N[C@H](C)[C@H]1C(=O)N2C(C(=O)O)=C(S[C@@H]3CN[C@H](CNC(=O)[C@@H]4CSCN4)C3)[C@H](C)[C@H]12 [Example 291]
8 µg/mL (≈ 16.2 µM)	16 µg/mL (≈ 32.3 µM)	128 µg/mL (≈ 259 µM)	4 µg/mL (≈ 8.09 µM)	CNCC(=O)N[C@H](C)[C@H]1C(=O)N2C(C(=O)O)=C(S[C@@H]3CN[C@H](C(=O)N4CC(C)(N)C4)C3)[C@H](C)[C@H]12 [Example 292]
128 µg/mL (≈ 293 µM)	> 128 µg/mL	128 µg/mL (≈ 293 µM)	32 µg/mL (≈ 73.3 µM)	C[C@@H](NCC1CC1)[C@H]1C(=O)N2C(C(=O)O)=C(S[C@@H]3CN[C@H](C(=O)N(C)C)C3)[C@H](C)[C@H]12 [Example 293]
1 µg/mL (≈ 2.03 µM)	16 µg/mL (≈ 32.5 µM)	1 µg/mL (≈ 2.03 µM)	0.06 µg/mL (≈ 0.122 µM)	C[C@@H](NC(=O)Cn1cnnn1)[C@H]1C(=O)N2C(C(=O)O)=C(SC3CN(C4=NCCS4)C3)[C@H](C)[C@@H]12 [Example 294]
16 µg/mL (≈ 29.9 µM)	64 µg/mL (≈ 119 µM)	16 µg/mL (≈ 29.9 µM)	2 µg/mL (≈ 3.73 µM)	CNCc1nnc(CC(=O)N[C@H](C)[C@H]2C(=O)N3C(C(=O)O)=C(S[C@@H]4CN[C@H](C(=O)N(C)C)C4)[C@H](C)[C@H]23)o1 [Example 295]
2 µg/mL (≈ 4.07 µM)	64 µg/mL (≈ 130 µM)	4 µg/mL (≈ 8.14 µM)	0.5 µg/mL (≈ 1.02 µM)	C[C@@H](NC(=O)Cn1ccnn1)[C@H]1C(=O)N2C(C(=O)O)=C(S[C@@H]3CN[C@H](C(=O)N(C)C)C3)[C@H](C)[C@H]12 [Example 296]
2 µg/mL (≈ 3.92 µM)	4 µg/mL (≈ 7.83 µM)	16 µg/mL (≈ 31.3 µM)	1 µg/mL (≈ 1.96 µM)	CNCC(=O)N[C@H](C)[C@H]1C(=O)N2C(C(=O)O)=C(S[C@@H]3CN[C@H](C(=O)N4C[C@@H](N)[C@H](O)C4)C3)[C@H](C)[C@H]12 [Example 297]
1 µg/mL (≈ 1.87 µM)	1 µg/mL (≈ 1.87 µM)	1 µg/mL (≈ 1.87 µM)	0.125 µg/mL (≈ 0.234 µM)	C[C@@H](NC(=O)Cn1cnnn1)[C@H]1C(=O)N2C(C(=O)O)=C(S[C@@H]3CN[C@H](C(=O)N4CC[C@@H](N)C4)C3)[C@H](C)[C@H]12 [Example 298, (4R,5S,6R)-6-((R)-1-(2-(1H-tetrazol-1-yl)acetamido)ethyl)-3-((3S,5S)-5-((R)-3-aminopyrrolidine-1-carbonyl)pyrrolidin-3-ylthio)-4-methyl-7-oxo-1-azabicyclo[3.2.0]hept-2-ene-2-carboxylic acid]
8 µg/mL (≈ 15.7 µM)	16 µg/mL (≈ 31.5 µM)	16 µg/mL (≈ 31.5 µM)	4 µg/mL (≈ 7.86 µM)	C[C@@H](NC(=O)CC(N)=O)[C@H]1C(=O)N2C(C(=O)O)=C(S[C@@H]3CN[C@H](C(=O)N4CC[C@@H](N)C4)C3)[C@H](C)[C@H]12 [Example 299, (4R,5S,6R)-6-((R) - 1-(3-amino-3-oxopropanamido)ethyl)-3-((3S,5S)-5-((R)-3-aminopyrrolidine-1-carbonyl)pyrrolidin-3-ylthio)-4-methyl-7-oxo-1-azabicyclo[3.2.0]hept-2-ene-2-carboxylic acid]
4 µg/mL (≈ 8.14 µM)	128 µg/mL (≈ 260 µM)	16 µg/mL (≈ 32.5 µM)	1 µg/mL (≈ 2.03 µM)	C[C@@H](NC(=O)Cn1cncn1)[C@H]1C(=O)N2C(C(=O)O)=C(S[C@@H]3CN[C@H](C(=O)N(C)C)C3)[C@H](C)[C@H]12 [Example 300, (4R,5S,6R)-6-((R) - 1-(2-(1H-1,2,4-triazol-1-yl)acetamido)ethyl)-3-((3S,5S)-5-(dimethylcarbamoyl)pyrrolidin-3-ylthio)-4-methyl-7-oxo-1-azabicyclo[3.2.0]hept-2-ene-2-carboxylic acid]
64 µg/mL (≈ 126 µM)	> 128 µg/mL	16 µg/mL (≈ 31.6 µM)	4 µg/mL (≈ 7.9 µM)	C[C@@H](NC(=O)Cc1nnn(C)n1)[C@H]1C(=O)N2C(C(=O)O)=C(S[C@@H]3CN[C@H](C(=O)N(C)C)C3)[C@H](C)[C@H]12 [Example 301, (4R,5S,6R)-3-((3S,5S)-5-(dimethylcarbamoyl)pyrrolidin-3-ylthio)-4-methyl-6-((R) - 1-(2-(2-methyl-2H-tetrazol-5-yl)acetamido)ethyl)-7-oxo-1-azabicyclo[3.2.0]hept-2-ene-2-carboxylic acid]
16 µg/mL (≈ 29.2 µM)	128 µg/mL (≈ 234 µM)	2 µg/mL (≈ 3.65 µM)	1 µg/mL (≈ 1.83 µM)	C[C@@H](NC(=O)Cc1nnn(C)n1)[C@H]1C(=O)N2C(C(=O)O)=C(S[C@@H]3CN[C@H](C(=O)N4CC[C@@H](N)C4)C3)[C@H](C)[C@H]12 [Example 302]
64 µg/mL (≈ 131 µM)	> 128 µg/mL	2 µg/mL (≈ 4.09 µM)	4 µg/mL (≈ 8.19 µM)	C[C@@H](NC(=O)c1cnccn1)[C@H]1C(=O)N2C(C(=O)O)=C(S[C@@H]3CN[C@H](C(=O)N(C)C)C3)[C@H](C)[C@H]12 [Example 303, (4R,5S,6R)-3-((3S,5S)-5-(dimethylcarbamoyl)pyrrolidin-3-ylthio)-4-methyl-7-oxo-6-((R) - 1-(pyrazine-2-carboxamido)ethyl) - 1-azabicyclo[3.2.0]hept-2-ene-2-carboxylic acid]

The remaining lines, values behind:

Structure (SMILES)	MIC [1]	MIC [2]	MIC [3]	MIC [4]
CNCC(=O)N[C@H](C)[C@H]1C(=O)N2C(C(=O)O)=C(SC[C@H](N)C(=O)N3CC[C@@H](N)C3)[C@H](C)[C@H]12 [Example 273]	32 µg/mL (≈ 68.3 µM)	128 µg/mL (≈ 273 µM)	128 µg/mL (≈ 273 µM)	16 µg/mL (≈ 34.1 µM)
CCCCN[C@H](C)[C@H]1C(=O)N2C(C(=O)O)=C(S[C@@H]3CN[C@H](C(=O)N(C)C)C3)[C@H](C)[C@H]12 [Example 274]	16 µg/mL (≈ 36.5 µM)	> 128 µg/mL	32 µg/mL (≈ 73 µM)	16 µg/mL (≈ 36.5 µM)
CNCC(=O)N[C@H](C)[C@H]1C(=O)N2C(C(=O)O)=C(S[C@@H]3CN[C@H](C(=O)N4CCC(N)(Cc5ccccc5)CC4)C3)[C@H](C)[C@H]12 [Example 275]	64 µg/mL (≈ 107 µM)	> 128 µg/mL	64 µg/mL (≈ 107 µM)	16 µg/mL (≈ 26.7 µM)
CNCC(=O)N[C@H](C)[C@H]1C(=O)N2C(C(=O)O)=C(S[C@@H]3CN[C@H](C(=O)N4CCC(N)(C(N)=O)CC4)C3)[C@H](C)[C@H]12 [Example 277]	4 µg/mL (≈ 7.25 µM)	16 µg/mL (≈ 29 µM)	64 µg/mL (≈ 116 µM)	2 µg/mL (≈ 3.63 µM)
CNCC(=O)N[C@H](C)[C@H]1C(=O)N2C(C(=O)O)=C(S[C@@H]3CN[C@H](C(=O)N4CCC(C)(N)CC4)C3)[C@H](C)[C@H]12 [Example 278]	2 µg/mL (≈ 3.83 µM)	4 µg/mL (≈ 7.65 µM)	16 µg/mL (≈ 30.6 µM)	2 µg/mL (≈ 3.83 µM)
CNCC(=O)N[C@H](C)[C@H]1C(=O)N2C(C(=O)O)=C(S[C@@H]3CN[C@H](C(=O)NC4CCOCC4)C3)[C@H](C)[C@H]12 [Example 279]	16 µg/mL (≈ 31.4 µM)	> 128 µg/mL	> 128 µg/mL	4 µg/mL (≈ 7.85 µM)
C[C@@H](NC(=O)[C@@H]1CS(=O)(=O)CN1)[C@H]1C(=O)N2C(C(=O)O)=C(S[C@@H]3CN[C@H](C(=O)N4CC[C@@H](N)C4)C3)[C@H](C)[C@H]12 [Example 280]	8 µg/mL (≈ 14 µM)	16 µg/mL (≈ 28 µM)	64 µg/mL (≈ 112 µM)	8 µg/mL (≈ 14 µM)
C[C@@H](NC(=O)[C@@H]1CS(=O)(=O)CN1)[C@H]1C(=O)N2C(C(=O)O)=C(S[C@@H]3CN[C@H](CNS(N)(=O)=O)C3)[C@H](C)[C@H]12 [Example 281]	16 µg/mL (≈ 28.2 µM)	64 µg/mL (≈ 113 µM)	32 µg/mL (≈ 56.5 µM)	8 µg/mL (≈ 14.1 µM)
CNCC(=O)N[C@H](C)[C@H]1C(=O)N2C(C(=O)O)=C(S[C@@H]3CN[C@H](CNC(=O)[C@@H]4C[C@H](F)CN4)C3)[C@H](C)[C@H]12 [Example 282]	2 µg/mL (≈ 3.8 µM)	32 µg/mL (≈ 60.8 µM)	32 µg/mL (≈ 60.8 µM)	1 µg/mL (≈ 1.9 µM)
C[C@@H](NC(=O)Cn1cnnn1)[C@H]1C(=O)N2C(C(=O)O)=C(S[C@@H]3CN[C@H](C(=O)N(C)C)C3)[C@H](C)[C@H]12 [Example 283]	0.5 µg/mL (≈ 1.02 µM)	8 µg/mL (≈ 16.2 µM)	16 µg/mL (≈ 32.5 µM)	0.25 µg/mL (≈ 0.508 µM)
C[C@@H](NC(=O)[C@H]1CS(=O)(=O)CN1)[C@H]1C(=O)N2C(C(=O)O)=C(S[C@@H]3CN[C@H](C(=O)N(C)C)C3)[C@H](C)[C@H]12 [Example 284]	4 µg/mL (≈ 7.55 µM)	64 µg/mL (≈ 121 µM)	1 µg/mL (≈ 1.89 µM)	1 µg/mL (≈ 1.89 µM)
C[C@@H](NC(=O)[C@H]1CNCCN1)[C@H]1C(=O)N2C(C(=O)O)=C(S[C@@H]3CN[C@H](C(=O)N(C)C)C3)[C@H](C)[C@H]12 [Example 285]	8 µg/mL (≈ 16.2 µM)	128 µg/mL (≈ 259 µM)	64 µg/mL (≈ 129 µM)	4 µg/mL (≈ 8.09 µM)
CNCC(=O)N[C@H](C)[C@H]1C(=O)N2C(C(=O)O)=C(S[C@@H]3CN[C@H](C(=O)N4C[C@@H](N)C[C@H]4C)C3)[C@H](C)[C@H]12 [Example 287]	8 µg/mL (≈ 15.7 µM)	16 µg/mL (≈ 31.5 µM)	128 µg/mL (≈ 252 µM)	4 µg/mL (≈ 7.86 µM)
CNCC(=O)N[C@H](C)[C@H]1C(=O)N2C(C(=O)O)=C(S[C@@H]3CN[C@H](C(=O)N4C[C@H](N)C[C@H]4c4ccccc4)C3)[C@H](C)[C@H]12 [Example 288]	16 µg/mL (≈ 28 µM)	> 128 µg/mL	128 µg/mL (≈ 224 µM)	4 µg/mL (≈ 7.01 µM)
C[C@@H](NC(=O)C(F)F)[C@H]1C(=O)N2C(C(=O)O)=C(SC[C@@H]3CNCCN3)[C@H](C)[C@H]12 [Example 289]	16 µg/mL (≈ 38.2 µM)	> 128 µg/mL	8 µg/mL (≈ 19.1 µM)	8 µg/mL (≈ 19.1 µM)
CNCC(=O)N[C@H](C)[C@H]1C(=O)N2C(C(=O)O)=C(S[C@@H]3CN[C@H](C(=O)N4CC5CC4CN5)C3)[C@H](C)[C@H]12 (some centres unmarked) [Example 290]	4 µg/mL (≈ 7.9 µM)	8 µg/mL (≈ 15.8 µM)	32 µg/mL (≈ 63.2 µM)	2 µg/mL (≈ 3.95 µM)
